Patent US9187486B2 (AMGEN INC., priority 2011, dated 2015)
Like-named read-outs stand apart in the source and are kept apart here.

Columns and labels:
[1] = biological target: Pim-2 (Homo sapiens (Human), UniProt Q9P1W9); test: Pim enzyme assay (HTRF, phosphorylation of biotinylated-BAD (S112) peptide), Pim-2; assay type: biochemical; conditions: full length recombinant Pim-2, biotinylated-BAD (S112) peptide, HTRF
From the text: (§1) Full-length human cDNAs encoding Pim-1 (MGC ID 3913552) or Pim-2 (IMAGE ID 5092935) were purchased from Invitrogen, Carlsbad, Calif. These cDNAs were used as templates in PCR reactions to produce full-length DNA clones of the PIMs. Oligonucleotide PCR primers for Pim-1 were 5′-[…]-3′ and 5′-[…]-3′. Oligonucleotide PCR primers for Pim-2 were 5′-[…]-3′ and 5′-[…]-3′. PCR products were digested with BclI and EcoRI for Pim-1 and BamHI and EcoRI for Pim-2 and ligated into a modified baculovirus transfer vector (pFastBac 1) cleaved with BamHI and EcoRI. For bacterial expression, the same cleaved PCR products encoding Pim-1 or Pim-2 were ligated into a modified E. coli expression vector pET28(a) cleaved with BamHI and EcoRI. Amino-terminal hexahistidine tags followed by a thrombin cleavage site were previously added to the vectors using standard methods of molecular biology. Recombinant baculoviruses expressing Pim-1 or Pim-2 were made using standard methods (Fastbac manual, Invitrogen, Carlsbad, Calif.). Infection of Sf9 cells was done at an m.o.i. of greater than 5 for 24-48 h. Cells were harvested by centrifugation and frozen at −80 C. For E. coli expression, cells carrying pET28-His6-Th-Pim-1 or pET28-His6-Th-Pim-2 were picked from a single colony and grown o/n in LB media. The o/n culture was used to inoculate a 2 liter flask with 500 mL media. This was grown o/n and used to inoculate 15-20 liters of Terrific Broth in a New Brunswick Scientific fermentor. The E. coli were grown at 37° C. to and OD600>1.6. The temperature was dropped to 18° C. and o/n expression was induced with 0.5 mM IPTG. Cells were harvested by centrifugation and frozen at −80° C.
(§2) The frozen cell pellets were thawed by stirring in chilled lysis buffer (0.05 M HEPES, pH 8.0, 0.25 M NaCl, 0.01 M 2-mercaptoethanol, 10% (w/v) glycerol, 0.5% (v/v) protease inhibitor cocktail (Sigma P-8340) at a ratio of 1 L/200 g cells until homogeneous. The thawed suspension was applied to a microfluidizer at 10,000 PSI to disrupt the cells and the whole lysates were clarified by centrifugation at 50,000×g for 90 min, 4° C. Imidazole was added to the clarified lysate to a final concentration of 2.5 mM and the lysate was mixed with 10 mL of Talon resin (Clontech) and the slurry rocked gently overnight at 4° C. The slurry was centrifuged at 1,000×g for 5 min, the supernatant decanted, and the resin suspended in 40 mL of lysis wash buffer (lysis buffer at 0.75 M NaCl). This step was repeated 3× and the resin was transferred to a 2.5 cm glass column. Ten column volumes of wash buffer (0.05 M HEPES, pH 8.0, 0.1 M NaCl, 0.01 M 2-mercaptoethanol, 10% (w/v) glycerol) were applied to the resin followed by 10 column volumes of elution buffer (0.05 M HEPES, pH 8.0, 0.25 M NaCl, 0.01 M 2-mercaptoethanol, 10% (w/v) glycerol, 0.1 M imidazole). Fractions were analyzed by SDS-PAGE and those containing the protein of interest were pooled and concentrated. The concentrated protein was applied to an Amersham Superdex 75 (XK 26/60) column equilibrated in 0.025 M Tris-HCl, pH 7.5, 0.1 M NaCl, 0.01 M 2-mercaptoethanol, 10% (w/v) glycerol. […] Fractions containing the monomeric protein of interest were pooled, concentrated to ˜2 mg/mL, and stored at −80° C.
(§3) The phosphorylation of biotinylated-BAD (S112) peptide by full length recombinant Pim-1, Pim-2, or Pim-3 protein was detected with streptavidin:Allophycocyanin (APC) conjugate and a europium (Eu) labeled antibody directed against phosphorylated-BAD (S112). Excitation of Eu by a high energy laser light (337 nm) leads to a transfer of energy to the APC molecule, and results in an emission at 665 nm. The fluorescence is directly proportional to the amount of phosphorylated BAD peptide present in the reaction.

[2] = biological target: Pim-1 (Homo sapiens (Human), UniProt P11309); test: Pim enzyme assay (HTRF, phosphorylation of biotinylated-BAD (S112) peptide), Pim-1; assay type: biochemical
From the text: as §1, §2, §3

[3] = system: KMS-12-BM myeloma cell line; test: Pim cell assay: phospho-BAD (S112) and total BAD in KMS-12-BM cells; assay type: cell-based; conditions: 1 hour and 50 minutes incubation
Experimental: The KMS-12-BM myeloma cell line was used to determine the in vitro cellular inhibition of Pim kinases. Disruption of Pim signaling by Pim inhibitors was determined by measuring the levels of phospho-BAD (S112) and total BAD. […] The cells were then incubated overnight at 37° C., 5% CO2. […] In addition to the 10-point dosing curve of the test compound, DMSO alone was run as a control. This dilution in DMSO was then diluted again into cell growth medium. Aliquots (11.1 uL) of the compound diluted in growth medium were then transferred to the appropriate wells of the 96-well plates containing cells to yield a final DMSO concentration of 0.3%. The cell plates were then incubated with compound for 1 hour and 50 minutes at 37° C., 5% CO2. After the 1 hour and 50 min incubation, the cell plates were spun at 1000 RPM for 10 minutes and the compound-containing medium was removed. […] The cell plates containing lysis buffer were then immediately stored at −70° C. These prepared lysates were then assayed for phospho-(S112) and total-BAD according to the manufacturer's protocol (Meso Scale Diagnostics, Cat # K15103D-3). The plates were read on the MSD Sector Imager 6000, and results were calculated according to the assay protocol: ((% Phosphoprotein=((2×Phospho signal)/(Phospho signal+Total signal))×100)).

[4] = Homo sapiens, KMS-12-BM, read-out: KMS12_Cell_IC50
[5] = 96-well, read-out: Pim-2 IC50 IP
[6] = full length recombinant Pim-1, biotinylated-BAD (S112) peptide, HTRF, 96-well, read-out: Pim-1 IC50 IP
[7] = full length recombinant Pim-1, biotinylated-BAD (S112) peptide, HTRF, read-out: Pim_1_IC50
[8] = Homo sapiens, KMS-12-BM, read-out: KMS-12-BM IC50 IP

Pim-2, sequence (Q9P1W9 whole entry): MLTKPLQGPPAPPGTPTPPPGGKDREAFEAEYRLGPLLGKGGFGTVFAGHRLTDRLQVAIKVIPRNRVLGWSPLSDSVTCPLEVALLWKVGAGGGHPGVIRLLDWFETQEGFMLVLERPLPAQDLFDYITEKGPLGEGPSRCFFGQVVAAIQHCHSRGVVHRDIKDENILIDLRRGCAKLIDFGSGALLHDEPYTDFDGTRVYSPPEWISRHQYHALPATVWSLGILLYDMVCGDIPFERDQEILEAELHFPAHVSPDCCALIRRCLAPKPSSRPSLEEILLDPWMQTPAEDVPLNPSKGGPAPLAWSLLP
Pim-1, sequence (P11309 whole entry): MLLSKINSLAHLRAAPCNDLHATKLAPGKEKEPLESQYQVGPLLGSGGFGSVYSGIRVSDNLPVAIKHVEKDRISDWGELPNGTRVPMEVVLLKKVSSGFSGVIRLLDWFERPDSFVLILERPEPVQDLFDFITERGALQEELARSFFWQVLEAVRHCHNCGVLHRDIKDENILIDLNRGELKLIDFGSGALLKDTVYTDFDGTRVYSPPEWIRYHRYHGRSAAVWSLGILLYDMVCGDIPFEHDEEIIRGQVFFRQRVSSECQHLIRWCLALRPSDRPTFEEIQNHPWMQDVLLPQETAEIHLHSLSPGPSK

Row | SMILES | IC50 ([1]; read-out: Pim2_IC50) [nM] | IC50 [3, 4] [nM] | IC50 [1, 5] [nM] | IC50 [2, 6] [nM] | IC50 [2, 7] [nM] | IC50 [3, 8] [nM] | also measured
1 | N[C@H]1CCCN(c2ccncc2Nc2ncc3ccc(-c4ccccc4F)nn23)C1 [Example 15, N-(4-((3S)-3-amino-1-piperidinyl)-3-pyridinyl)-2-(2-fluorophenyl)imidazo[1,5-b]pyridazin-7-amine bis(2,2,2-trifluoroacetate)] | 2 | 1540 | – | – | – | – | IC50 ([2]; read-out: Pim_1_IC50): 0.2 nM
2 | C[C@@H]1CCN(c2ccncc2Nc2ncc3ccc(-c4c(F)cccc4F)nn23)C[C@H]1N (single isomer, unassigned) [Example 101, N-(4-((trans)-3-amino-4-methylpiperidin-1-yl)pyridin-3-yl)-2-(2,6-difluorophenyl)imidazo[1,5-b]pyridazin-7-amine tris(2,2,2-trifluoroacetate)] | – | – | 32.4 | 7.6 | – | – | IC50 ([3]; tris(2,2,2-trifluoroacetate), read-out: KMS-12-BM IC50 IP): 6930 nM
3 | CS(=O)(=O)c1ccc(-c2ccc3cnc(Nc4cnccc4N4CCC[C@H](N)C4)n3n2)c(F)c1 [Example 22, N-(4-((3S)-3-amino-1-piperidinyl)-3-pyridinyl)-2-(2-fluoro-4-(methylsulfonyl)phenyl)imidazo[1,5-b]pyridazin-7-amine] | 9.1 | 2390 | – | – | 1.2 | – | –
4 | N[C@H]1CCCN(c2ncncc2Nc2ncc3ccc(-c4c(F)cccc4F)nn23)C1 [Example 36, (S)-N-(4-((3S)-3-amino-1-piperidinyl)-5-pyrimidinyl)-2-(2,6-difluorophenyl)imidazo[1,5-b]pyridazin-7-amine] | – | – | 110 | 19.2 | – | > 31600 | –
5 | C[C@@H]1C[C@H](N)CN(c2ccncc2Nc2ncc3ccc(-c4ccccn4)nn23)C1 (relative stereo) [Example 63, N-(4-((cis)-3-amino-5-methylpiperidin-1-yl)pyridin-3-yl)-2-(pyridin-2-yl)imidazo[1,5-b]pyridazin-7-amine] | – | – | 1.3 | 0.3 | – | 235 | –
6 | N[C@H]1CCCN(c2ccncc2Nc2ncc3ccc(-c4nccs4)nn23)C1 [Example 8, N-(4-((3S)-3-amino-1-piperidinyl)-3-pyridinyl)-2-(1,3-thiazol-2-yl)imidazo[1,5-b]pyridazin-7-amine] | 3 | 726 | – | – | 1 | – | –
7 | N[C@H]1CCCN(c2ccncc2Nc2ncc3ccc(-c4ccc(Cl)cc4Cl)nn23)C1 [Example 11, N-(4-((3S)-3-amino-1-piperidinyl)-3-pyridinyl)-2-(2,4-dichlorophenyl)imidazo[1,5-b]pyridazin-7-amine] | 11 | 5010 | – | – | 2 | – | –
8 | C[C@H]1CCN(c2ccncc2Nc2ncc3ccc(-c4c(F)cccc4F)nn23)C[C@H]1N (single isomer, unassigned) [Example 99, N-(4-((cis)-3-amino-4-methylpiperidin-1-yl)pyridin-3-yl)-2-(2,6-difluorophenyl)imidazo[1,5-b]pyridazin-7-amine bis(2,2,2-trifluoroacetate)] | – | – | 1.6 | 0.3 | – | – | IC50 ([3]; bis(2,2,2-trifluoroacetate), read-out: KMS-12-BM IC50 IP): 2700 nM
9 | Clc1ccccc1-c1ccc2cnc(Nc3cnccc3O[C@H]3CCCNC3)n2n1 [Example 16, 2-(2-chlorophenyl)-N-(4-((3S)-3-piperidinyloxy)-3-pyridinyl)imidazo[1,5-b]pyridazin-7-amine bis(2,2,2-trifluoroacetate)] | 298 | > 1000 | – | – | 44 | – | –
10 | Fc1cccc(F)c1-c1ccc2cnc(Nc3cnccc3OC3CNC3)n2n1 [Example 9, N-(4-(3-azetidinyloxy)-3-pyridinyl)-2-(2,6-difluorophenyl)imidazo[1,5-b]pyridazin-7-amine] | 99 | 10300 | – | – | 14 | – | –
11 | N[C@H]1CCCN(c2ccncc2Nc2ncc3ccc(-c4cc(C(=O)NC5CC5)ccc4F)nn23)C1 [Example 74, 3-(7-((4-((3S)-3-amino-1-piperidinyl)-3-pyridinyl)amino)imidazo[1,5-b]pyridazin-2-yl)-N-cyclopropyl-4-fluorobenzamide] | – | – | 0.5 | 0.2 | – | 185 | –
12 | N[C@H]1C[C@@H](C(F)(F)F)CN(c2ccncc2Nc2ncc3ccc(-c4c(F)cccc4F)nn23)C1 (racemic) [Example 60, rac-N-(4-((cis)-3-amino-5-(trifluoromethyl)piperidin-1-yl)pyridin-3-yl)-2-(2,6-difluorophenyl)imidazo[1,5-b]pyridazin-7-amine bis(2,2,2-trifluoroacetate)] | – | – | 0.3 | 0.1 | – | 116 | –
13 | O[C@@H]1CCN(c2ccncc2Nc2ncc3ccc(-c4c(F)cccc4F)nn23)C[C@H]1O (single isomer, unassigned) [Example 35, 1-(3-((2-(2,6-difluorophenyl)imidazo[1,5-b]pyridazin-7-yl)amino)-4-pyridinyl)-3,4-trans-piperidinediol] | – | – | 8.8 | 2.7 | – | 667 | –
14 | N[C@H]1CCCN(c2ccncc2Nc2ncc3ccc(-c4ccccn4)nn23)C1 [Example 64, (S)-N-(4-(3-aminopiperidin-1-yl)pyridin-3-yl)-2-(pyridin-2-yl)imidazo[1,5-b]pyridazin-7-amine] | – | – | 6.4 | 1.5 | – | 1760 | –
15 | Fc1cccc(F)c1-c1ccc2cnc(Nc3cnccc3N3CCNCC3)n2n1 [Example 2, 2-(2,6-difluorophenyl)-N-(4-(1-piperazinyl)-3-pyridinyl)imidazo[1,5-b]pyridazin-7-amine] | 126 | > 31000 | – | – | 14 | – | –
16 | N[C@@H]1C=C(c2ccncc2Nc2ncc3ccc(-c4c(F)cccc4F)nn23)CC[C@H]1F (racemic) [Example 93, (2,2,2-trifluoroacetate)] | – | – | 15.5 | – | – | 2600 | –
